Experimental findings from patent US20090099192A1, “Substituted 1H-pyrrole-2,5-diones” (Bayer CropScience AG, priority 2004, published 2009) are described below.

Data set [1] concerns green peach aphid (Myzus persicae). In words: Myzus test (spray treatment, Brassica pekinensis). Type of data set: in vivo. The following applies: for Kill rate in % after 5 d: 500 g/ha, spray, Brassica pekinensis disks. The method, then: [table] To produce a suitable preparation of active compound, 1 part by weight of active compound is mixed with the stated amounts of solvents and emulsifier, and the concentrate is diluted with emulsifier-containing water to the desired concentration. Disks of Chinese cabbage (Brassica pekinensis) which are infested by all stages of the green peach aphid (Myzus persicae) are sprayed with an active compound preparation of the desired concentration. After the desired period of time, the effect in % is determined. 100% means that all aphids have been killed; 0% means that none of the aphids have been killed.

In data set [2] the test system is caterpillars of the diamond back moth (Plutella xylostella). As to the kind of experiment: Plutella test. Type of data set: in vivo. As to the method: (§1) [table] To produce a suitable preparation of active compound, 1 part by weight of active compound is mixed with the stated amounts of solvent and emulsifier, and the concentrate is diluted with emulsifier-containing water to the desired concentration. Cabbage leaves (Brassica oleracea) are treated by being dipped into the active compound preparation of the desired concentration and populated with caterpillars of the diamond back moth (Plutella xylostella) while the leaves are still moist. After the desired period of time, the kill in % is determined. 100% means that all caterpillars have been killed; 0% means that none of the caterpillars have been killed.

Data set [3] deals with larvae of the mustard beetle (Phaedon cochleariae). As to the kind of experiment: Phaedon larvae test (cabbage leaves dipped). Type of data set: in vivo. The method, then:
[table] To produce a suitable preparation of active compound, 1 part by weight of active compound is mixed with the stated amount of solvent and the stated amount of emulsifier, and the concentrate is diluted with water to the desired concentration. Cabbage leaves (Brassica oleracea) are treated by being dipped into the active compound preparation of the desired concentration and populated with larvae of the mustard beetle (Phaedon cochleariae) while the leaves are still moist. After the desired period of time, the kill in % is determined. 100% means that all beetle larvae have been killed; 0% means that none of the beetle larvae have been killed.

Data set [4] relates to black bean aphid (Aphis fabae). As to the kind of experiment: Aphis fabae test. Type of data set: in vivo. The method, then:
as §1, with “Shoots of young broadbeans (Vicia faba) which are heavily infested by the black bean aphid (Aphis fabae)” for “Cabbage leaves (Brassica oleracea)”, “concentration.” for “concentration and populated with caterpillars of the diamond back moth (Plutella xylostella) while the leaves are still moist.”, “aphids” for “caterpillars”

The test system of data set [5] is common spidermite (Tetranychus urticae). As to the kind of experiment: Tetranychus test. Conditions: for Kill rate in % after 5 d: 500 ppm, spray, Phaseolus vulgaris disks. Type of data set: in vivo. The method, then: To produce a suitable preparation of active compound, 1 part by weight of active compound is mixed with the stated amounts of solvent and emulsifier, and the concentrate is diluted with emulsifier-containing water to the desired concentration.
Disks of beans (Phaseolus vulgaris), which are infested by all stages of the common spidermite (Tetranychus urticae) are sprayed with an active compound preparation of the desired concentration.
After the desired period of time, the effect in % is determined. 100% means that all spidermites have been killed; 0% means that none of the spidermites have been killed.

For data set [6], the system named is green peach aphid (Myzus persicae). As to the kind of experiment: Myzus test - oral. Type of data set: in vivo. The following applies: for Kill rate in % after 6 d: 20 ppm, oral (sucking). As to the method:
[table] To produce a suitable preparation of active compound, 1 part by weight of active compound is mixed with the stated amounts of solvent, and the concentrate is diluted with water to the desired concentration. Vessels are populated with all stages of the green peach aphid (Myzus persicae), which are treated by sucking on the active compound preparation of the desired concentration. After the desired period of time, the effect in % is determined. 100% means that all aphids have been killed; 0% means that none of the aphids have been killed.

The nature of data set [7]: logP determination by HPLC on reversed-phase column (C 18), EEC Directive 79/831 Annex V.A8. Type of data set: physicochemical. The following applies: reversed-phase C 18, 43° C., acid range (0.1% aqueous phosphoric acid, acetonitrile), marked a). In short, it runs like this: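 Reversed-phase C18 HPLC at 43° C, per EEC Directive 79/831 Annex V.A8, acid range: 0.1% aqueous phosphoric acid with linear 10–90% acetonitrile gradient. logP derived from retention time by linear interpolation between calibrating unbranched alkan-2-ones (C3–C16) of known logP.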

Data set [8] deals with cotton aphid (Aphis gossypii). As to the kind of experiment: Aphis gossypii test. Type of data set: in vivo. Conditions: for Kill rate in % after 7 d: 500 g/ha, spray, Gossypium hirsutum. The method, then: (§2) [table] To produce a suitable preparation of active compound, 1 part by weight of active compound is mixed with the stated amounts of solvent and emulsifier, and the concentrate is diluted with emulsifier-containing water to the desired concentration. Cotton leaves (Gossypium hirsutum) which are heavily infested by the cotton aphid (Aphis gossypii) are treated by spraying with the active compound preparation at the desired concentration. After the desired period of time, the kill in % is determined. 100% means that all animals have been killed; 0% means that none of the animals have been killed.

For data set [9], the system named is green peach aphid (Myzus persicae). In words: Myzus test (spray treatment, Brassica oleracea). Type of data set: in vivo. Conditions: for Kill rate in % after 7 d: 500 g/ha, spray, Brassica oleracea. As to the method: as §2, with “Cabbage” for “Cotton”, “(Brassica oleracea)” for “(Gossypium hirsutum)”, “green peach” for “cotton”, “(Myzus persicae)” for “(Aphis gossypii)”

The test system of data set [10] is caterpillars of the army worm (Spodoptera frugiperda). As to the kind of experiment: Spodoptera frugiperda test (corn leaf disks sprayed). Type of data set: in vivo. Conditions: for Kill rate in % after 7 d: 500 g/ha, spray, Zea mays leaf disks. As to the method:
[table] To produce a suitable preparation of active compound, 1 part by weight of active compound is mixed with the stated amounts of solvents and emulsifier, and the concentrate is diluted with emulsifier-containing water to the desired concentration. Disks of corn leaves (Zea mays) are sprayed with an active compound preparation of the desired concentration and, after drying, populated with caterpillars of the army worm (Spodoptera frugiperda). After the desired period of time, the effect in % is determined. 100% means that all caterpillars have been killed; 0% means that none of the caterpillars have been killed.

In data set [11] the test system is larvae of the mustard beetle (Phaedon cochleariae). As to the kind of experiment: Phaedon test (spray treatment). Conditions: for Kill rate in % after 7 d: 500 g/ha, spray, Brassica pekinensis disks. Type of data set: in vivo. In short, it runs like this: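 Chinese cabbage leaf disks sprayed with compound diluted in emulsifier-containing water, dried, then infested with mustard beetle larvae. After a set period, mortality scored in %: 100% all larvae dead, 0% none dead.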

The subject of data set [12] is Meloidogyne incognita. As to the kind of experiment: Meloidogyne test (gall formation on lettuce roots). Type of data set: in vivo. The method, then: [table] To produce a suitable preparation of active compound, 1 part by weight of active compound is mixed with the stated amounts of solvent and emulsifier, and the concentrate is diluted with water to the desired concentration. Vessels are filled with sand, active compound solution, Meloidogyne incognita egg/larvae suspension and lettuce seeds. The lettuce seeds germinate and the plants develop. On the roots, galls are formed. After the desired period of time, the nematicidal effect is determined in % by means of gall formation. 100% means that no galls were found; 0% means that the number of galls on the treated plants corresponds to that of the untreated control.

The test system of data set [13] is caterpillars of the army worm (Spodoptera frugiperda). As to the kind of experiment: Spodoptera frugiperda test (cabbage leaves dipped). Type of data set: in vivo. The method, then: [table] To produce a suitable preparation of active compound, 1 part by weight of active compound is mixed with the stated amount of solvent and the stated amount of emulsifier, and the concentrate is diluted with emulsifier-containing water to the desired concentration. Cabbage leaves (Brassica oleracea) are treated by being dipped into the active compound preparation of the desired concentration and populated with caterpillars of the army worm (Spodoptera frugiperda) while the leaves are still moist. After the desired period of time, the kill in % is determined. 100% means that all caterpillars have been killed; 0% means that none of the caterpillars have been killed.

Turning to `CCN1C(=O)C(O)=C(c2c(C)cc(C)cc2C)C1=O` [Example 1, 1-ethyl-3-hydroxy-4-(2,4,6-trimethylphenyl)-1H-pyrrole-2,5-dione], the melting point (usually the temperature of the solid-liquid transition) worked out at 168 °C.
As to `CCN1C(=O)C(OC(=O)C(C)(C)C)=C(c2c(C)cc(C)cc2C)C1=O` [Example 2, 1-ethyl-3-pivaloyloxy-4-(2,4,6-trimethylphenyl)-1H-pyrrole-2,5-dione], the melting point came to 91 °C. In addition, in data set [1], the “activity in the Myzus test (spray, Brassica pekinensis)” value is reported as “good activity” and the “Kill rate in % after 5 d” value is recorded as 90%.
Turning to `CCN1C(=O)C(OC(C)=O)=C(c2c(C)cc(C)cc2C)C1=O` [Example 3], the “activity in the Plutella test” value in [2] was “good activity”. For the same molecule, the “Kill rate in % after 7 d” value in data set [2] (1000 ppm, leaf dip) is 90%. Also, in data set [1], the “activity in the Myzus test (spray, Brassica pekinensis)” value was “good activity” and the “Kill rate in % after 5 d” value is on record as 90%.
`C=CCN1C(=O)C(O)=C(c2c(C)cc(C)cc2C)C1=O` [Example 4]: the “activity in the Phaedon larvae test” value in [3] is “good activity”. In addition, the “Kill rate in % after 7 d” value in data set [3] (1000 ppm, leaf dip, Brassica oleracea) amounted to 100%. Also, the “activity in the Aphis fabae test” value in data set [4] was “good activity”. The “Kill rate in % after 6 d” value in data set [4] (1000 ppm, Vicia faba shoots dipped) was 99%. Besides, in data set [1], the “activity in the Myzus test (spray, Brassica pekinensis)” value is given as “good activity” and the “Kill rate in % after 5 d” value is given as 70%.
For the molecule `CC(C)(C)C(=O)OC1=C(c2ccccc2Br)C(=O)N(C2CCCC(C(F)(F)F)C2)C1=O` (stereo not shown) [Example 185], in data set [5], the “activity in the Tetranychus test” value is given as “good activity” and the “Kill rate in % after 5 d” value is recorded as 80%. Besides, in [6], the “activity in the Myzus test - oral” value is “good activity” and the “Kill rate in % after 6 d” value worked out at 100%. In [7], the logP result was “logP = 5.34^a)”. In data set [8], the “activity in the Aphis gossypii test” value was “good activity” and the “Kill rate in % after 7 d” value is 95%. Further, in data set [9], the “activity in the Myzus test (spray, Brassica oleracea)” value is “good activity” and the “Kill rate in % after 7 d” value was determined as 95%. In [10], the “activity in the Spodoptera frugiperda test (spray)” value is reported as “good activity” and the “Kill rate in % after 7 d” value was 100%. For the same molecule, in data set [1], the “activity in the Myzus test (spray, Brassica pekinensis)” value is “good activity” and the “Kill rate in % after 5 d” value is reported as 100%. In [11], the “activity in the Phaedon test (spray treatment)” value is reported as “good activity” and the “Kill rate in % after 7 d” value was determined as 100%.
With `CC(C)(C)C(=O)OC1=C(c2ccccc2Cl)C(=O)N(C2CCCC(C(F)(F)F)C2)C1=O` (stereo not shown) [Example 201], in data set [5], the “activity in the Tetranychus test” value is “good activity” and the “Kill rate in % after 5 d” value was 100%. Also, in data set [6], the “activity in the Myzus test - oral” value is “good activity” and the “Kill rate in % after 6 d” value was 100%. In data set [7], the logP result is given as “logP = 5.29^a)”. Moreover, in data set [8], the “activity in the Aphis gossypii test” value is reported as “good activity” and the “Kill rate in % after 7 d” value is 99%. Moreover, in data set [9], the “activity in the Myzus test (spray, Brassica oleracea)” value was “good activity” and the “Kill rate in % after 7 d” value was 98%. In addition, in [10], the “activity in the Spodoptera frugiperda test (spray)” value was “good activity” and the “Kill rate in % after 7 d” value stood at 100%. Moreover, in [1], the “activity in the Myzus test (spray, Brassica pekinensis)” value was “good activity” and the “Kill rate in % after 5 d” value was 100%. In data set [11], the “activity in the Phaedon test (spray treatment)” value is “good activity” and the “Kill rate in % after 7 d” value amounted to 100%.
`N#Cc1ccc(C2=C(O)C(=O)N(C3CCCC(C(F)(F)F)C3)C2=O)cc1` (stereo not shown) [Example 215]: in data set [12], the “activity in the Meloidogyne test” value is on record as “good activity”. The “Kill rate in % after 14 d (nematicidal effect by gall formation)” value in [12] (20 ppm, lettuce in sand) is reported as 80%. In data set [7], the logP result is listed as “logP = 3.04^a)”. The “activity in the Spodoptera frugiperda test (leaf dip)” value in data set [13] was “good activity”. In addition, in data set [13] (500 ppm, leaf dip, Brassica oleracea), the “Kill rate in % after 7 d” value came out at 85%.
